The sequences below were run on FVIII-specific T cell hybridomas (peptides presented by HLA-DRB1*1501) (assay: Peptide specificity of FVIII-specific T cell hybridomas (IL-2 release)). Settings: during Factor VIII replacement therapy or connected with acquired hemophilia.
Type: cell-based, mouse
Excerpt: To better mimic the human MHC class II molecule for identifying FVIII peptides, a mouse model was developed for hemophilia A with a chimeric MHC class II molecule carrying a human HLA-DRB1*1501 specific binding site. This mouse was backcrossed to a mouse carrying a complete knock out of all murine MHC class II genes (Reipert et al., J. Thromb. Haemost. 7 Suppl. 1:92-97 (2009)). In this new transgenic mouse model, all CD4^+ T cell responses are driven by the human MHC class II molecule. This mouse model was used to identify FVIII peptides presented by HLA-DRB1*1501 that drive anti-FVIII immune responses in these mice.
Hemophilic HLA-DRB15 E17 mice: HLA-DRB1*1501^+/− E17^−/− mice as described in Reipert et al., J. Thromb. Haemost. 7 Suppl. 1:92-97 (2009). Mice were all male and aged 8 to 12 weeks at the beginning of the experiment.
Immunization with human recombinant FVIII: HLA-DRB1*1501^+/− E17^−/− mice received between 4 and 8 intravenous or subcutaneous doses of 0.2 μg or 1 μg human rFVIII at weekly intervals. rFVIII was diluted in the original formulation buffer or Dulbecco phosphate buffered saline containing calcium and magnesium (DPBS; Sigma Aldrich, St. Louis, Mo., USA).
Cell preparation: Spleens were obtained 3 to 7 days after the last immunization with rFVIII. Spleen cells were minced and passed through a 70 μm cell strainer (Becton Dickinson, Franklin Lakes, N.J.). Single cells were collected in culture medium: RPMI 1640 medium (Gibco, Invitrogen, Life Technologies, Carlsbad, Calif.) supplemented with 10% preselected fetal calf serum (FCS; Hyclone, Logan, Utah), 2 mM L-glutamine, 100 U/mL penicillin/streptomycin (both from Gibco), and 5×10^−5 M mercaptoethanol (Sigma-Aldrich). Erythrocytes were lysed using hypotonic buffer (pH 7.2) composed of 0.15 M ammonium chloride, 10 mM potassium bicarbonate (both from Merck, Darmstadt, Germany) and 0.1 mM ethylene-diaminetetraacetic acid (Sigma-Aldrich). Cells were washed and counted using a Coulter Counter Z1. […]

| Sequence | involvement in the immune response mounted against FVIII protein |
| --- | --- |
| AWPKMHTVNGYVNRSLPGLIG (listed as Homo sapiens) [FVIII^246-266] | involved in the immune response |
| QANRSPLPIAKVSSFPSIRPIYLT (listed as Homo sapiens) [FVIII^1401-1424] | involved in the immune response |
| TVVITLKNMASHPVSLHAVGV (listed as Homo sapiens) [FVIII^102-122] | involved in the immune response |

From US8969524B2, “FVIII peptides for immune tolerance induction and immunodiagnostics” (Baxter International Inc., priority 2010, dated 2015)
